Data as given in patent publication US5998366A, “Method for ameliorating glutamic acid decarboxylase associated autoimmune disorders” (The Regents of the University of California, priority 1997, dated 1999).

How the values were obtained:
female NOD mice = experiment: Insulitis score after tolerance induction; assay type: in vivo; settings: examined at 12 weeks
Method: 1. In these experiments female NOD mice were intravenously injected at 3 weeks of age with 50 μg GAD, μ-galactosidase, mycobacterial hsp65 (m-hsp) or 0.1 μg of the immunodominant hsp peptide (hsp-p), in PBS. At 12 weeks of age, mice were examined for insulitis and autoantigen reactive T-cells. At this age both indications are established in untreated NOD mice. Pancreatic tissue sections were stained by immunoperoxidase techniques for insulin and were counterstained with hematoxylin. Insulitis was scored in a blinded manner by examining 54 to 87 islets on 5 interrupted tissue sections from each pancreas. Proliferative splenic T-cell responses induced by various antigens were performed as described above in Example 4. Data in Table 8 are expressed as the average [^3 H]-thymidine label (cpm) incorporated in triplicate cultures.
2. In a second set of experiments neonatal female NOD mice were injected intraperitoneally IFA with peptide 11, a mixture of peptides 34 and 35 plus IFA, or with IFA alone and at 12 weeks of age the mice were examined for insulitis and autoantigen reactive T-cells as in Example 6.1. Proliferative splenic T-cell responses induced by the various antigens were performed as in Example 4, and data in Table 8B are expressed as the average [^3 H]-thymidine label (cpm) incorporated in triplicate cultures.
3. In a third set of experiments female NOD mice were intravenously injected at three weeks of age with peptide 11 (control), a mixture of peptides 34 and 35 plus IFA, or with HEL peptides and at 12 weeks of age the mice were examined for insulitis and autoantigen reactive T-cells as in Example 6.1. Proliferative splenic T-cell responses induced by the various antigens were performed as in Example 4, and data in Table 8C are expressed as the average [^3 H]-thymidine label (cpm) incorporated in triplicate cultures.

[1] = test system: spleen cells of 6-9 week old NOD mice; experiment: IFNγ ELISA and ELISA spot of spleen cells challenged with antigen; assay type: cell-based
Method: In one series of experiments γ interferon (IFNγ) was measured by ELISA in culture supernatants (CSN) of spleen cells of 6-9 week old mice after challenge with GAD or control antigens HEL and MBP. Additionally, the frequency of antigen specific, IFNγ-producing cells was determined by an ELISA spot technique (T. Taguchi, et al., J. Immunol., 145:68-77, 1990). Frequency of antigen-induced, spot forming cells (SFC) among 10^3 spleen cells is represented in FIG. 9(a). Values are the mean+SEM from 5 individual female NOD mice, each tested in triplicate cultures with or without antigen. Results from a single experiment are shown. These are representative of 3 separate experiments.
In performing these experiments, freshly isolated spleen cells were cultured with or without antigen as described in Example 4. CSN were taken after 48 h and the concentration of IFNγ was determined by ELISA (Macy, et al., FASEB J., 3003-3009, 1988). IFNγ specific monoclonal antibody (mAb) R4-6A2 (Pharmingen) was used as the capturing reagent and biotinylated mAb XMG 1.2 (Pharmingen, also specific for IFNγ) was used in conjunction with streptavidin-alkaline phosphatase (Zymed) and […] for detection of bound lymphokine. […] Spots were counted visually and the frequency of antigen specific cells was determined from the difference between the number of spots seen with and without antigen.

GAD: human GAD65 purified from recombinant bacteria on the basis of a hexahistidine tag
Insulitis Score (female NOD mice; Table 8A: i.v. injection at 3 weeks of age in PBS, scale 0-4, mean ± SE): 0.1 ± 0.1
insulitis score of the completely tolerized mice (female NOD mice; i.v. at 3 weeks): 0.0
IFNγ in culture supernatants after antigen challenge ([1]; 48 h, ELISA): high concentrations of IFNγ
frequency of antigen-reactive (IFNγ spot forming) T-cells in the spleen ([1]; ELISA spot): 90-291 cells per 10^5 cells
